Results taken from US20040022726A1, “Methods and compositions for intravesical therapy of bladder cancer” (priority 2002, published 2004).
Numbered stars: 1 amine (or outer) side, 2 acyl side, 3 side chain; on linkers, the order of the positions; unused ones are H or OH. Square brackets hold non-standard residues; d marks the D form. Side chains are listed from the residue outwards. Peptide text beside a SMILES is read from it. * marks the point of attachment. DOTA = O=C(O)CN1CCN(CC(=O)O)CCN(CC(=O)*)CCN(CC(=O)O)CC1; NH(2-(imidazol-4-yl)ethyl) = c1ncc(CCN*)[nH]1; Suc = O=C(CCC(=O)[*:2])[*:1]

Tested on: superficial cancer of the urinary bladder
Details: human, in vivo
Method: Antibody-Mediated Radioimmunotherapy Using a Beta-Emitting Radionuclide A patient with a superficial cancer of the urinary bladder is treated with a 1:1 molar mixture of the bispecific antibody hMN-14×679-F(ab′)2 [anti-CEA×anti-HSG] of example 1, and the carrier-free Y-90-IMP 241 bivalent hapten of example 3, above. The premixed radioimmunotherapy agent is introduced into the bladder via a urethral catheter inserted under local anesthetic. Prior to injection, the bladder is drained completely, and 70 mL of the complex in 70 mL 0.9% NaCl (comprising 20 mg of the bispecific antibody and 10 mCi of Y-90 conjugated to the bivalent hapten) are instilled and allowed 90 minutes to localize by binding to tumor tissue. The unbound radiolabeled is bispecific antibody mixture is then allowed to evacuate the bladder through the urethra, by washing out the bladder using 50 mL 0.9% NaCl, leaving the remaining administered radioactivity bound substantially only to tumor cells. Seventy-two hours later, the patient is taken to the operating room, where biopsies of macroscopically normal urothelium and bladder tumor are made. The urothelium is separated from the underlying mucularis layer and assayed in a beta scintillating counter to allow measurement of radioactivity in the tumor and in the normal tissue, and then the preparations were fixed in formalin for histopathological evaluation. […]

histology of normal urothelium: relatively intact normal urothelium
Compound: NC(=O)[C@H](CCCCNC(=O)CNC(=O)CCC(=O)NCCc1cnc[nH]1)NC(=O)[C@@H](Cc1ccc(O)cc1)NC(=O)[C@H](CCCCNC(=O)CNC(=O)CCC(=O)NCCc1cnc[nH]1)NC(=O)[C@H](Cc1ccccc1)NC(=O)CN1CCN(CC(=O)O)CCN(CC(=O)O)CCN(CC(=O)O)CC1 [Y-90-IMP 241, metal not drawn] ({DOTA}-FK([Gly-Suc-NH(2-(imidazol-4-yl)ethyl)])[dY]K([Gly-Suc-NH(2-(imidazol-4-yl)ethyl)])-NH2)
